{
  "source": "ChEMBL document CHEMBL3526033",
  "about": "“Identification of human liver cytochrome P450 enzymes involved in the metabolism of SCH 530348 (Vorapaxar), a potent oral thrombin protease-activated receptor 1 antagonist” (Drug Metab Dispos, 2011)",
  "key": {"[1]": {"test_system": "Liver microsome", "experiment": "Drug metabolism in human liver microsomes assessed as 2-hydroxyethyl (1R,3aR,4aR,6R,8aR,9S,9aS)-9-((E)-2-(5-(3-fluorophenyl)pyridin-2-yl)vinyl)-1-methyl-3-oxododecahydronaphtho[2,3-c]furan-6-ylcarbamate formation at 25 uM after 120 mins by LC-MS/MS analysis in presence of NADPH", "assay_type": "ADME", "settings": "2 h"}, "[2]": {"molecular_target": "T1, Cytochrome P450 3A4 (Homo sapiens, UniProt P08684)", "T1 sequence (P08684 whole entry)": "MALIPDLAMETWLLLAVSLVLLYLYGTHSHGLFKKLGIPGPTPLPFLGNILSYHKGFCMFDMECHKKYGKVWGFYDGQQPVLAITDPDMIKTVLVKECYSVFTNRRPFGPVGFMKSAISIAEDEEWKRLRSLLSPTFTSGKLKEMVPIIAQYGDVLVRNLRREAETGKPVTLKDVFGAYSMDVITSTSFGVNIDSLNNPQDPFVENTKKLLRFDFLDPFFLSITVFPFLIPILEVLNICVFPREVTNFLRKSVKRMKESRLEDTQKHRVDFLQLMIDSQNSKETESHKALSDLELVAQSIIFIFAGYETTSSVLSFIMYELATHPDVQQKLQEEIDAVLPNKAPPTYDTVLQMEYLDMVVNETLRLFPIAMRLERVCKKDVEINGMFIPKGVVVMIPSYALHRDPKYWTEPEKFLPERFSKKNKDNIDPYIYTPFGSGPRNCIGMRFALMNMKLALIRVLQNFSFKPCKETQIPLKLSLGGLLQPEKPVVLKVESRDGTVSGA", "experiment": "Drug metabolism assessed as human recombinant CYP3A4-mediated 2-hydroxyethyl (1R,3aR,4aR,6R,8aR,9S,9aS)-9-((E)-2-(5-(3-fluorophenyl)pyridin-2-yl)vinyl)-1-methyl-3-oxododecahydronaphtho[2,3-c]furan-6-ylcarbamate formation at 25 uM after 120 mins by LC-MS/MS analysis in presence of astemizole", "assay_type": "ADME", "settings": "recombinant enzyme, 2 h"}, "[3]": {"molecular_target": "CYP2C19 (Homo sapiens, UniProt P33261)", "sequence (P33261 whole entry)": "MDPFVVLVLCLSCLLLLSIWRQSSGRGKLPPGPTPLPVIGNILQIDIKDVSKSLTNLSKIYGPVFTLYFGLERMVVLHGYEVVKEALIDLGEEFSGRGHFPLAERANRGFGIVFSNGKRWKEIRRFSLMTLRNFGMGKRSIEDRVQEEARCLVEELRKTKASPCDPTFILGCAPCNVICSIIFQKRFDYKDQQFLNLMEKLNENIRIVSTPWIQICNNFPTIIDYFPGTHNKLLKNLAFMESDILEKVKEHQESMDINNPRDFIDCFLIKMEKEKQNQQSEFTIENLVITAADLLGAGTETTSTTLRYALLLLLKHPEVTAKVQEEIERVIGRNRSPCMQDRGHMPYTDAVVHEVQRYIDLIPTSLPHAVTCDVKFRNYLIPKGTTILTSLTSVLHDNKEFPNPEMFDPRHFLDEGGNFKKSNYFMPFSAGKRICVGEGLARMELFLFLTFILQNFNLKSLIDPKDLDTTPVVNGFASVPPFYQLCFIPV", "experiment": "Activity of human recombinant CYP2C19 assessed as enzyme-mediated drug metabolism at 10 uM after 120 mins by LC-MS/MS analysis in presence of NADPH", "assay_type": "ADME", "settings": "read-out: Compound recovery"}, "[4]": {"molecular_target": "CYP2D6 (Homo sapiens, UniProt P10635)", "sequence (P10635 whole entry)": "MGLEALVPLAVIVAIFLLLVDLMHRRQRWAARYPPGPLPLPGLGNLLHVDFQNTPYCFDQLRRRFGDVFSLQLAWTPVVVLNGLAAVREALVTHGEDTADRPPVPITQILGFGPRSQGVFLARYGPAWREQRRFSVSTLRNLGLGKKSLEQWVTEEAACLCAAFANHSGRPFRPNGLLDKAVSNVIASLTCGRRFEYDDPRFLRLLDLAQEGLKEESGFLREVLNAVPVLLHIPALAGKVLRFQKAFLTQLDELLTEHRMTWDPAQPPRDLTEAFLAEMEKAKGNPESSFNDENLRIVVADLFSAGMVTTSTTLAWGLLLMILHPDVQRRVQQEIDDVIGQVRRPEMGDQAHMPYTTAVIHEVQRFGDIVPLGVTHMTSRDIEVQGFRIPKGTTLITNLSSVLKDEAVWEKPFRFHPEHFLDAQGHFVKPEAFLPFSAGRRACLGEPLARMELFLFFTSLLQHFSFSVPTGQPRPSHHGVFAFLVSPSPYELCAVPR", "experiment": "Activity of human recombinant CYP2D6 assessed as enzyme-mediated drug metabolism at 10 uM after 120 mins by LC-MS/MS analysis in presence of NADPH", "assay_type": "ADME", "settings": "read-out: Compound recovery"}, "[5]": {"experiment": "Drug level in human lung microsomes treated with 25 uM vorapaxar after 120 mins by LC-MS/MS analysis in presence of NADPH", "assay_type": "ADME, microsome", "settings": "2 h"}, "[6]": {"molecular_target": "T2, Cytochrome P450 4F3 (Homo sapiens, UniProt Q08477)", "T2 sequence (Q08477 whole entry)": "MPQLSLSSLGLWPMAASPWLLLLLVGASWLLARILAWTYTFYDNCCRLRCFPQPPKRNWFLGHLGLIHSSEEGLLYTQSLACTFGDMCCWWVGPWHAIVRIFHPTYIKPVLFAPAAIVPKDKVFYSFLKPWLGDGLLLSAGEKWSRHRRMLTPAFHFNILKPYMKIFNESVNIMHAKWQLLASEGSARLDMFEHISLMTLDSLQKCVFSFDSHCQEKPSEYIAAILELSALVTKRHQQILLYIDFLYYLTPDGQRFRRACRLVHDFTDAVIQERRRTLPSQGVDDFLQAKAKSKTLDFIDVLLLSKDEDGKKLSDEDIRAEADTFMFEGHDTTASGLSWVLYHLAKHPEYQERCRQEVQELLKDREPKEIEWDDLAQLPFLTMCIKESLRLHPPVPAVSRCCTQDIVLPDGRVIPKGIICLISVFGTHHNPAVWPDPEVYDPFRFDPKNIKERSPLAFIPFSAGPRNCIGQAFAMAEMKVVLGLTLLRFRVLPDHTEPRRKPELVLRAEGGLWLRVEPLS", "experiment": "Activity of human recombinant CYP4F3B assessed as enzyme-mediated drug metabolism treated with 25 uM vorapaxar after 120 mins by LC-MS/MS analysis in presence of NADPH", "assay_type": "ADME", "settings": "2 h"}, "[7]": {"molecular_target": "T3, Cytochrome P450 2J2 (Homo sapiens, UniProt P51589)", "T3 sequence (P51589 whole entry)": "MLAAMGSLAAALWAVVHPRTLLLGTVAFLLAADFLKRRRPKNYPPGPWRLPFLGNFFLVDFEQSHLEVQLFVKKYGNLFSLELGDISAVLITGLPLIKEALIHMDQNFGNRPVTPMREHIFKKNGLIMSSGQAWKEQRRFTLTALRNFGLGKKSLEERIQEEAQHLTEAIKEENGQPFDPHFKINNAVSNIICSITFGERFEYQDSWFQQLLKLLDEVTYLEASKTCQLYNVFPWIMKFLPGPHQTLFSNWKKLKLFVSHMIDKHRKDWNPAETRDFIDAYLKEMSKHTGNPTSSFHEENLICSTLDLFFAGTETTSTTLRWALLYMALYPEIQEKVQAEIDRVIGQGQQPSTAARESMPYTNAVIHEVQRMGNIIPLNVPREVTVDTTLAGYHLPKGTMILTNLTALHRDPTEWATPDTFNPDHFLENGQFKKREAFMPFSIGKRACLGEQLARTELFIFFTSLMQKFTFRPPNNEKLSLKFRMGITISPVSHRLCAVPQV", "experiment": "Drug metabolism in human liver microsomes assessed as CYP2J2-mediated (3R,3aS,4S,4aR,7R,8aR,9aR)-7-amino-4-((E)-2-(5-(3-fluorophenyl)pyridin-2-yl)vinyl)-3-methyldecahydronaphtho[2,3-c]furan-1(3H)-one formation at 25 uM after 120 mins by LC-MS/MS analysis", "assay_type": "ADME", "settings": "2 h"}, "[8]": {"molecular_target": "T4, Cytochrome P450 1A1 (Homo sapiens, UniProt P04798)", "T4 sequence (P04798 whole entry)": "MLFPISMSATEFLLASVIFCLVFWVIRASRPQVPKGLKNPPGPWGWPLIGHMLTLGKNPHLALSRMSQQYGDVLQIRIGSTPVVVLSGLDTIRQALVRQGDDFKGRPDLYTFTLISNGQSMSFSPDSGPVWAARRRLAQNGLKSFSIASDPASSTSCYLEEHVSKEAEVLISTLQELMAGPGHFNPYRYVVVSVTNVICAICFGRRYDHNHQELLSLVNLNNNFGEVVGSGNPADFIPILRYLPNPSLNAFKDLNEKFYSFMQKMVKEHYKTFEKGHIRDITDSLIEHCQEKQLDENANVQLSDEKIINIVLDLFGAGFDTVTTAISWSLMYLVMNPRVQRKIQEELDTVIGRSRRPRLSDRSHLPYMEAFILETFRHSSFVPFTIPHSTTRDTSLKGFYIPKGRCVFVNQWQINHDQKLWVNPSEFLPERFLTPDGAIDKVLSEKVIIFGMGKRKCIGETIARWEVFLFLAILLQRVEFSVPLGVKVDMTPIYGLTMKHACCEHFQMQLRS", "experiment": "Activity of human recombinant CYP1A1 assessed as enzyme-mediated (3R,3aS,4S,4aR,7R,8aR,9aR)-7-amino-4-((E)-2-(5-(3-fluorophenyl)pyridin-2-yl)vinyl)-3-methyldecahydronaphtho[2,3-c]furan-1(3H)-one formation at 25 uM after 120 mins by LC-MS/MS analysis in presence of NADPH", "assay_type": "ADME", "settings": "2 h"}, "[9]": {"molecular_target": "T1, Cytochrome P450 3A4", "experiment": "Activity of human recombinant CYP3A4 assessed as enzyme-mediated drug metabolism at 10 uM after 120 mins by LC-MS/MS analysis", "assay_type": "ADME", "settings": "2 h"}},
  "data": [
    {"smiles": "CCOC(=O)N[C@@H]1CC[C@@H]2[C@@H](C1)C[C@H]1C(=O)O[C@H](C)[C@H]1[C@H]2/C=C/c1ccc(-c2cccc(F)c2)cn1", "note": "[VORAPAXAR]", "values": [
      {"measurement": "Vmax", "setting": "[1]", "value": 0.4, "unit": "pmol/min"},
      {"measurement": "Drug metabolism", "setting": "[2]", "value": "metabolite_not_detected"},
      {"measurement": "remaining at 2 h, 10 µM", "setting": "[3]", "value": 94.1, "unit": "%"},
      {"measurement": "remaining at 2 h, 10 µM", "setting": "[4]", "value": 98.1, "unit": "%"}
    ]},
    {"smiles": "C[C@H]1OC(=O)[C@@H]2C[C@@H]3C[C@H](NC(=O)OCCO)CC[C@H]3[C@H](/C=C/c3ccc(-c4cccc(F)c4)cn3)[C@H]12", "values": [
      {"measurement": "Drug metabolism", "setting": "[5]", "value": "metabolite_detected"},
      {"measurement": "Drug metabolism", "setting": "[6]", "value": "metabolite_detected"},
      {"measurement": "Drug metabolism", "setting": "[7]", "value": "metabolite_detected"}
    ]},
    {"smiles": "CCOC(=O)N[C@@H]1CC[C@@H]2[C@@H](C1)C[C@H]1C(=O)O[C@H](C)[C@H]1[C@H]2/C=[14CH]/c1ccc(-c2cccc(F)c2)cn1", "values": [
      {"measurement": "Drug metabolism", "setting": "[8]", "value": "metabolite_detected"},
      {"measurement": "Drug metabolism", "setting": "[9]", "value": "metabolite_not_detected"}
    ]}
  ]
}
